Assay [1] concerns respiratory/surgical infections by bacteria resistant to the antibiotic. Nature of the assay: Clinical study of NE tablets + antibiotic in non-responding infections, all cases. The settings on record: NE tablets 100 mg twice a day + that antibiotic, 1-3 weeks.
Assay [2] concerns Staphylococcus aureus. Description: Clinical study of NE tablets + antibiotic in non-responding infections. The conditions noted are these: NE tablets + antibiotic to which resistant.
For assay [3], the system named is Staphylococcus aureus. Description: Agar Dilution Method of Sensitivity testing, NE alone and NE + antibiotic. The settings on record: resistant S. aureus cultures, 48 hours. In kind it is cell-based. The protocol: (§1) Two kinds of investigations were carried-out using these bacterial isolates—using an Agar Dilution Method of Sensitivity testing.
(§2) i) To ascertain whether, NE can work as an antibacterial substance on its own. For this purpose, a stock-solution of NE was prepared and was sterilized as described in the preliminary experiments.
(§3) ii) This stock-solution was dispensed into the culture medium (Mueller Hinton Agar) so as to provide while; the medium was in liquid form. Four different concentrations of NE, viz.
(§4) iii) This medium was poured into petri dishes and allowed to solidify. Resistant cultures were inoculated on to these plates and after incubation for 48 hours, the growth patterns were assessed.
(§5) iv) The experiments were run in triplicate, for each concentration—as per standard practices of microbiological testing procedures.
(§6) i) The culture medium (Mueller Hinton Agar) was melted and distributed into a number of test tubes.
(§7) ii) The stock solution of NE was dispensed into these test tubes in four different concentrations viz.
(§8) iii) In the same medium, one of the antibiotics under investigation was also added so as to provide a variable concentration (at break-even point concentration) as described below:
(§9) iv) The culture medium containing NE extract+the antibiotic were poured into petri dishes and allowed to solidify.
(§10) v) The resistant bacterial strains were inoculated onto these plates, incubated for 48 hours and the growth patterns were studied on each plate.
These cultures were obtained various clinical samples, such as sputum, non-healing infected wounds, throat swabs etc.

The test system of the next assay is Klebsiella pneumoniae. Described as above. Format: cell-based. The settings on record: 41 resistant K. pneumoniae strains, 48 hours. The protocol:
as §1, §2, §3, §4, §5, §6, §7, §8, §9, §10
Under the same series of investigations, sensitization effect of NE was evaluated on resistant isolates of Klebsiella pneumoniae.

The test system of another assay is Proteus mirabilis. Description: Agar Dilution Method of Sensitivity testing, NE + antibiotic. In kind it is cell-based. The settings on record: resistant Proteus mirabilis strains, 48 hours. The protocol: as §1, §6, §7, §8, §9, §10
The sensitization effect of NE was also examined on Proteus mirabilis strains resistant to Penicillin derivatives and quinolone derivative antibiotics.
(In general: In agar dilution the substance is mixed into plates at graded concentrations.)

The test system of assay [4] is Staphylococcus aureus. Description: Broth tube test of NE with antibiotic at break point, percentage of killing. In kind it is cell-based. The settings on record: Example 12 strain; antibiotic with NE, uniform for all the concentrations of NE. The protocol: Since all the study isolates are resistant to the concerned antibiotics, each antibiotic is taken at its breakpoint concentration, (the highest serum concentration of that particular antibiotic reached after the maximum therapeutic dose in-vivo). The break points for various antibiotics are as follows:
Preparation of Neem Extract: Stock solution of neem extract (1 mg/ml) was prepared, filtered and autoclaved. It was used in 4 concentrations—1000 μg/ml; 500 μg/ml; 250 μg/ml; 125 μg/ml.
A set of four tubes with variable concentrations of the extract is prepared and to each of these tubes, the break point concentration of antibiotics is added. Now, these sets are inoculated with the study isolate in the same manner as per the broth dilution procedure. A set of six controls is inoculated with each isolate—in parallel with the main experiment.
2. Only antibiotic solution
3. Medium and antibiotic solution with inoculum
5. Only Neem extract at 250 μg/ml
6. Medium with Neem Extract and inoculum
Reading the test All the tests and control tubes are observed for visible turbidity of growth first. Since all the study isolates were earlier confirmed to be resistant to the antibiotics, the bacterial growth is expected at the breakpoint concentration of the antibiotic. Any reduction in the turbidity as compared to the control tube no. 3 is noted as a possible additive or synergistic effect of the neem extract with the antibiotic. In absence of such effect, the tubes may show growth matching with the control no. 4.
In case of a positive result, further sub-culturing was taken up, on solid media for colony counts with a calibrated loop. The colony counts could be noted by a semi quantitative method as 101 to 10^5 CFU/ml (Colony forming units). This is finally expressed as the percentage of killing as compared to the colony count obtained with control no. 4. Usually control tubes no. 3, 4 and 6 had similar colony counts.

For a further assay, the system named is Mixed Infections. Description: Clinical study of NE tablets + antibiotic in non-responding infections.
For assay [5], the system named is Staphylococcus aureus. Description: Broth Macro Dilution Test, MIC and MBC. In kind it is cell-based. The settings on record: Example 12: strain from non-healing burn wound swab culture, antibiotic alone. The protocol: This was done by estimation of the Minimum Inhibitory Concentration (MIC) and Minimum Bactericidal Concentration (MBC) on the selected isolates by a Broth Macro Dilution Test.
Cation Supplemented Mueller Hinton Broth was used as medium for all organisms excepting for β haemolytic streptococci for which, Todd Hewit's Broth was used as medium.
The following concentrations of antibiotics were tested to determine MIC and MBC.
A minimum inhibitory concentration is the lowest level of antibiotic needed to cause an inhibition to bacterial growth in culture medium whereas, the minimum bactericidal concentration is the lowest concentration of antibiotic to achieve a 100% killing of bacteria. Thus, these two values are the practical indices of intensity of bacterial resistance to a given antibiotic. On the other hand, a break-even point of any antibiotic indicates the attainable blood levels after an administration of full dose, in human/animal body. Thus, this point indicates the practical dosage of administering any given antibiotic effectively and beyond this point, even if an antibiotic is found to act effectively in experimental situation—such dose cannot be administered in a clinical situation.

In a further assay the test system is Escherichia coli. Description: Agar Dilution Method of Sensitivity testing, NE alone and NE + antibiotic. In kind it is cell-based. The settings on record: 37 resistant E. coli strains, 48 hours. The protocol:
as §1, §2, §3, §4, §5, §6, §7, §8, §9, §10

Setting [6] is: antibiotic at break-even point + NE 125 μg/mL.
The mark [7] stands for this setting: antibiotic at break-even point + NE 250 μg/mL.
Setting [8] is: antibiotic at break-even point + NE 500 μg/mL.
Setting [9] is: antibiotic at break-even point + NE 1000 μg/mL.
[10] abbreviates: Respiratory Infections, NE tablets + antibiotic to which resistant.
The mark [11] stands for this setting: all mixed infections resistant to the antibiotic, NE tablets + antibiotic.

The text below walks through data of patent US6599541B1, “Composition for treatment of drug resistant bacterial infections and a method of treating drug resistant bacterial infections” (priority 1999, dated 2003).

As a reminder, the MBC is the smallest concentration meeting the test's criterion for killing. Read a high MBC as weaker bactericidal potency. As usually defined, the MIC is the lowest concentration that inhibits growth of the organism.

Structures are written as SMILES. Converted amounts (≈) assume the structure as drawn. “And” between values parts separate entries of the source, which are not always exact repeats. Equal entries are not always repeated.

With `CC[C@H]1OC(=O)[C@H](C)[C@@H](O[C@H]2C[C@@](C)(OC)[C@@H](O)[C@H](C)O2)[C@H](C)[C@@H](O[C@@H]2O[C@H](C)C[C@H](N(C)C)[C@H]2O)[C@](C)(O)C[C@@H](C)/C(=N\OCOCCOC)[C@H](C)[C@@H](O)[C@]1(C)O` [Roxythromycin], the “No. of cases with Grade-II response (complete clinical and bacteriological)” value in assay [1] is recorded as 2. For the same molecule, the “No. of Cases Gr.-I” value in the assay on Staphylococcus aureus [2] (Respiratory Infections) came to 1. Further, in the assay with Staphylococcus aureus [2] (Surgical Infections), the “No. of Cases Gr-0” value is reported as 1 and the “No. of Cases Gr.-II” value is 2.

Regarding `CC1(C)S[C@@H]2[C@H](NC(=O)[C@H](N)c3ccccc3)C(=O)N2[C@H]1C(=O)O` [Ampicillin], the “Growth Patterns after addition of NE: no. of cultures +++ (growth)” value (shortened to “Growth Patterns … no. of cultures +++ (growth)”) in the assay with Staphylococcus aureus [3] (setting [6]) worked out at 34; in the assay on Staphylococcus aureus [3] (setting [7]), 29; in the assay on Staphylococcus aureus [3] (setting [8]), 26; in the assay on Staphylococcus aureus [3] (setting [9]), 20; with Klebsiella pneumoniae (setting [6]), 17; in the assay on Klebsiella pneumoniae (setting [7]), 17. For the same molecule, the “Growth Patterns … no. of cultures +++ (growth)” value is reported as 17 with Klebsiella pneumoniae (setting [8]); 17 with Klebsiella pneumoniae (setting [9]); 7 in the assay with Proteus mirabilis (setting [6]); 7 with Proteus mirabilis (setting [7]); 7 in the assay on Proteus mirabilis (setting [8]); 7 with Proteus mirabilis (setting [9]). Also, the “Growth Patterns … no. of cultures +++ (growth)” value in the assay on Escherichia coli (setting [6]), in the assay on Escherichia coli (setting [7]), with Escherichia coli (setting [8]) and in the assay on Escherichia coli (setting [9]) was 31 throughout. Besides, the “Growth Patterns after addition of NE: no. of cultures −−− (inhibition of growth)” value in the assay on Staphylococcus aureus [3] (setting [6]) is 68; with Staphylococcus aureus [3] (setting [7]), 73; in the assay with Staphylococcus aureus [3] (setting [8]), 76; in the assay on Staphylococcus aureus [3] (setting [9]), 82; with Klebsiella pneumoniae (setting [6]) it was 24; in the assay with Klebsiella pneumoniae (setting [7]), 24. The “Growth Patterns after addition of NE: no. of cultures −−− (inhibition of growth)” value was found to be 24 in the assay on Klebsiella pneumoniae (setting [8]); 24 in the assay on Klebsiella pneumoniae (setting [9]); 3 with Proteus mirabilis (setting [6]); 3 with Proteus mirabilis (setting [7]); 3 with Proteus mirabilis (setting [8]); 3 with Proteus mirabilis (setting [9]). Also, the “Growth Patterns after addition of NE: no. of cultures −−− (inhibition of growth)” value in the assay on Escherichia coli (setting [6]), with Escherichia coli (setting [7]), in the assay on Escherichia coli (setting [8]) and in the assay with Escherichia coli (setting [9]) was 6 each time. For the same molecule, the “No. of cases with Grade-II response (complete clinical and bacteriological)” value in [1] is recorded as 4. Moreover, the killing in the assay with Staphylococcus aureus [4] was 80% and 70%. Moreover, in the assay with Mixed Infections (setting [10]), the “No. of Cases Gr.-I” value was determined as 1. The “No. of Cases Gr.-II” value turned out to be 1 in the assay with Mixed Infections (setting [10]) and 1 in the assay on Mixed Infections (Surgical Infections, NE tablets + antibiotic to which resistant). Further, the “No. of cases with effective sensitization / complete response” value in the assay with Mixed Infections (setting [11]) worked out at 2. In addition, the “No. of cases with partial response” value in the assay on Mixed Infections (setting [11]) is given as “one”. The molecule also showed a minimal bactericidal concentration (MBC) against Staphylococcus aureus [5] of more than 128 µg/mL. The same molecule yielded an MIC against Staphylococcus aureus [5] of 64 µg/mL (≈ 183 µM).
